# Data as given in article PMC9393629, “Acetogenic production of 3-Hydroxybutyrate using a native 3-Hydroxybutyryl-CoA Dehydrogenase” (Frontiers in Microbiology, 2022).
# Columns and labels:
# [1] = target: T1, C. ljungdahlii Hbd2 (Clostridium ljungdahlii, UniProt D8GTU3); assay: NAD(P)H oxidation at […] nm, E. coli cell-free extract; format: biochemical; conditions: 75 uM NADH, 125 uM acetoacetyl-CoA; 100 mM potassium phosphate pH 6.5, 25 mM potassium citrate; vector-extract activity subtracted
# T1 construct: gene mmgB_1; full-length gene expressed in E. coli, cell-free extract (bead-beating), not purified; EC 1.1.1.57 printed
# T1 sequence (D8GTU3 1-313): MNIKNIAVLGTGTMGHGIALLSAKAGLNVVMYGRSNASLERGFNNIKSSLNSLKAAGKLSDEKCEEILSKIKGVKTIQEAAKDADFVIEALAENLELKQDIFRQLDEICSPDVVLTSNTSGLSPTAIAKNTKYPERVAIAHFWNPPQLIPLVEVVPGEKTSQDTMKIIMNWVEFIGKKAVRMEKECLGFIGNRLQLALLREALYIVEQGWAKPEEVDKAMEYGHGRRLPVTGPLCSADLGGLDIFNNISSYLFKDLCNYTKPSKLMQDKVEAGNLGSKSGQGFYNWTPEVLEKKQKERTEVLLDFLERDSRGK
# [2] = target: T2, C. kluyveri Hbd1 (Clostridium kluyveri, UniProt A5N5D1); assay: as above; format: biochemical; conditions: 75 uM NADPH, 125 uM acetoacetyl-CoA; 100 mM potassium phosphate pH 6.5, 25 mM potassium citrate
# T2 construct: full-length gene expressed in E. coli, cell-free extract (bead-beating), not purified
# T2 sequence (A5N5D1 1-282): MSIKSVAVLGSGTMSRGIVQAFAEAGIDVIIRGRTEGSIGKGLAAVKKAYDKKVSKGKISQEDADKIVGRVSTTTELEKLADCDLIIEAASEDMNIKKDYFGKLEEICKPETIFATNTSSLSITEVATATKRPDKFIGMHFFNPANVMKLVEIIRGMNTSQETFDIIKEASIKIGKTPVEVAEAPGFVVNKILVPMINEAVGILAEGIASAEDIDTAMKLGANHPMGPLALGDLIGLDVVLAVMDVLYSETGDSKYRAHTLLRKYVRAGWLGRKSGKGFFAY
Compound,"NAD(P)H oxidation at 340 nm, E. coli cell-free extract [1]","NAD(P)H oxidation at 340 nm, E. coli cell-free extract [2]"
NC(=O)C1=CN([C@@H]2O[C@H](COP(=O)(O)OP(=O)(O)OC[C@H]3O[C@@H](n4cnc5c(N)ncnc54)[C@H](O)[C@@H]3O)[C@@H](O)[C@H]2O)C=CC1 [NADH],we confirmed NADH specificity and acetoacetyl-CoA-dependence,
CC(=O)CC(=O)SCCNC(=O)CCNC(=O)[C@H](O)C(C)(C)COP(=O)(O)OP(=O)(O)OC[C@H]1O[C@@H](n2cnc3c(N)ncnc32)[C@H](O)[C@@H]1OP(=O)(O)O [acetoacetyl-CoA],we confirmed NADH specificity and acetoacetyl-CoA-dependence,Both hbd1 and hbd2 E. coli cell free extracts showed low activity without acetoacetyl-CoA
NC(=O)C1=CN([C@@H]2O[C@H](COP(=O)(O)OP(=O)(O)OC[C@H]3O[C@@H](n4cnc5c(N)ncnc54)[C@H](OP(=O)(O)O)[C@@H]3O)[C@@H](O)[C@H]2O)C=CC1 [NADPH],,C. kluyveri hbd1 E. coli extracts were used as an NADPH-specific control
